We go through three compounds from US20240182460A1, “ALLOSTERIC CHROMENONE INHIBITORS OF PHOSPHOINOSITIDE 3-KINASE (PI3K) FOR THE TREATMENT OF DISEASE” (PETRA PHARMA CORPORATION, priority 2022, published 2024).

pIC50: −log10 of the molar value. Like-named read-outs stand apart in the source and are kept apart here. A value given as a limit tells only on which side of the number the result lay.

The target in data set [1] is T1, PI3Kα H1047R (Homo sapiens, UniProt P42336, H1047R).
T1 construct: The MDA-MB-453 (ATCC-HTB-131) cell line (PI3Kα H1047R); host or cells: MDA-MB-453
T1 sequence (P42336 whole entry H1047R): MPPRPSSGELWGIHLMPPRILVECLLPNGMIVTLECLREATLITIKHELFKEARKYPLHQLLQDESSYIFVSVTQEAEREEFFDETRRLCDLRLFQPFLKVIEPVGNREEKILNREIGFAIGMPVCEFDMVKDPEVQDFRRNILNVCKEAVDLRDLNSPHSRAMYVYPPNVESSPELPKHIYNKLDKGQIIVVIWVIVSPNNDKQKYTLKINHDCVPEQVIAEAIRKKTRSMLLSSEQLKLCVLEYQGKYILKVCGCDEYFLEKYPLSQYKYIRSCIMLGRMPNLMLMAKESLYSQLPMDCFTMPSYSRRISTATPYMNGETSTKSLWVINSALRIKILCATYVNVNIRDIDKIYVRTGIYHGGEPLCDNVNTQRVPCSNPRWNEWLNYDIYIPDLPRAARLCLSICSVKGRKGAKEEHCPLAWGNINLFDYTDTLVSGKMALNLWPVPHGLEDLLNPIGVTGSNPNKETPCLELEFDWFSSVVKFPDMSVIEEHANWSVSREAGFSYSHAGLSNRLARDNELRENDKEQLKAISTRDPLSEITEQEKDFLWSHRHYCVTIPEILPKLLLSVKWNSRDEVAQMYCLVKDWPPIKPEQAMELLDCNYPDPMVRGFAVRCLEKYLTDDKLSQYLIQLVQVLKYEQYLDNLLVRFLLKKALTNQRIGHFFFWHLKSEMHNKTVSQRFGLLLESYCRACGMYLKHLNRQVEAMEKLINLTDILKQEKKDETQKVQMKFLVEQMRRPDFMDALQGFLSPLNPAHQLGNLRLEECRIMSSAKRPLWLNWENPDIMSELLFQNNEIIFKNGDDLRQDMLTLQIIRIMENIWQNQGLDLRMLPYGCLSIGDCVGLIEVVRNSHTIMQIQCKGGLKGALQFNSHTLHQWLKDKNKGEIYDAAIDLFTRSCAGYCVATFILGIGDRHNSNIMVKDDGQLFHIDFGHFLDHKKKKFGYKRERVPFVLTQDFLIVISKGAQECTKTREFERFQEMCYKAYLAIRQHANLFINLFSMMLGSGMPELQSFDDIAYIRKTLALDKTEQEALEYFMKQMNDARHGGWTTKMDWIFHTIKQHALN
T1 sequence (P27986 whole entry partner): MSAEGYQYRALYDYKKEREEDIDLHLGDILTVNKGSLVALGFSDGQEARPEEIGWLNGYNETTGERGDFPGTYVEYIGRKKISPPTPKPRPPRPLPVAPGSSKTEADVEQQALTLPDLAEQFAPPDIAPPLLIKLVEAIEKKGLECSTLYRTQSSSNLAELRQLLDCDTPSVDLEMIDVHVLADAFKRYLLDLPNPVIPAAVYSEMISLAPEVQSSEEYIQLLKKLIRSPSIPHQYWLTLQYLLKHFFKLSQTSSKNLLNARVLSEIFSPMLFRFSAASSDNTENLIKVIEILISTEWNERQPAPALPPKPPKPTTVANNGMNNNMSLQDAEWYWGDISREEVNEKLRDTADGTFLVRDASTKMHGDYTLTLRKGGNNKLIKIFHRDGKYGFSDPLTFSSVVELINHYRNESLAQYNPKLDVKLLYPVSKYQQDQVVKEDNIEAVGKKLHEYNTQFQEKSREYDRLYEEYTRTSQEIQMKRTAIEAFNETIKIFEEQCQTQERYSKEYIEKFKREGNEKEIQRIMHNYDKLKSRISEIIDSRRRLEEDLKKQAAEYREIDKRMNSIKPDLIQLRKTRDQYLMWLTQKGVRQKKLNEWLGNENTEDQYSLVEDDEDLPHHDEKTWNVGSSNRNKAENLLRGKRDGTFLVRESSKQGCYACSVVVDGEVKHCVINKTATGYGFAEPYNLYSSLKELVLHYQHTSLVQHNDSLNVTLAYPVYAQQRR
Put plainly: PI3Kα H1047R mutant in vitro cell based assay, MDA-MB-453 cells (AlphaLisa SureFire). The note with it: MDA-MB-453 cell line, 0% FBS, 3 hours treatment. The gist of the method:
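MDA-MB-453 cells (endogenous PI3Kα H1047R) were treated for 3 h in serum-free MEM containing 1 μg/mL insulin, with 10-point 1:3 dilutions in 0.3% DMSO. Lysates were read by AlphaLisa SureFire. IC50 came from a 4-parameter logistic fit of duplicate % inhibition, normalized to DMSO (max) and 1 μM GDC-0032 (min).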

Data set [2] deals with T2, PI3Kα E545K (Homo sapiens, UniProt P42336, E545K). Kind of data set: PI3Kα E545K mutant in vitro cell based assay, MCF-7 cells. The note with it: MCF-7 cell line, 0% FBS, 3 hours treatment. The gist of the method:
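MCF-7 cells (PI3Kα E545K) in serum-free MEM with 1 μg/mL insulin were treated 3 h with 10-point 1:3 dilutions in 0.3% DMSO. Lysates were read by SureFire AlphaLisa. IC50 was fitted by 4-parameter logistic to % inhibition relative to DMSO (max) and 1 μM GDC-0032 (min), duplicates averaged.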

Data set [3] in a line: Metabolic stability and intrinsic clearance in human liver microsomes (MICS). Format: in vitro ADME. The conditions noted are these: pH 7.4. Put shortly:
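Test compound (1 μM final) incubated at 37° C with liver microsomes (0.5 mg/mL protein) in 100 mM phosphate buffer pH 7.4, with 1 mM NADPH or without cofactor; sampled at 0.5–60 min, quenched with cold acetonitrile. Parent remaining quantified by LC-MS/MS; t1/2 from ln-% remaining slope converted to CLint (μL/min/mg protein).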
(Liver microsomes are a subcellular fraction often used to study metabolism.)

Data set [4] has as its target T2, PI3Kα E545K. Put plainly: PI3Kα E545K mutant in vitro cell based assay, MDA-MB-361 cells. Also on record: MDA-MB-361 (ATCC-HTB-27) cell line (PI3Kα E545K); host or cells: MDA-MB-361. The conditions noted are these: MDA-MB-361 cell line, 0% FBS, no insulin, 3 hours treatment. Put shortly:
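MDA-MB-361 cells (PI3Kα E545K) seeded in serum-free MEM assay medium without insulin, attached overnight, then treated 3 h with compound (10-point 1:3 series, 0.3% DMSO). AlphaLISA SureFire readout of lysates. IC50 by 4-parameter fit, normalized to DMSO (max) and 1 μM GDC-0032 (min).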

In general, pIC50 refers to −log10 of the IC50, conventionally taken in molar units. Low readings indicate a high IC50, high ones a low IC50.

T2 sequence (P42336 whole entry E545K): as the sequence (P42336 whole entry H1047R) above, with E545K, R1047H counted along it
T2 sequence (P27986 whole entry partner): as the sequence (P27986 whole entry partner) above

Turning to `Cc1cc([C@@H](C)Oc2ccc(Cl)nc2S(N)(=O)=O)c2oc(-c3cnc(C4CC4)nc3)c(C)c(=O)c2c1` [Example 83A, 6-Chloro-3-[(1R)-1-[2-(2-cyclopropylpyrimidin-5-yl)-3,6-dimethyl-4-oxo-chromen-8-yl]ethoxy]pyridine-2-sulfonamide], the pIC50 in data set [1] is more than 7.00; in data set [2], more than 6.30. This compound gave a microsomal CLint at 1 μM in data set [3] (human, microsomes) of less than 50 µL/min/mg.
Take `Cc1cc([C@@H](C)Oc2ccc(Cl)nc2-c2noc(=O)[nH]2)c2oc(-c3ccccc3)c(C)c(=O)c2c1` [Example 2, 3-[6-Chloro-3-[(1R)-1-(3,6-dimethyl-4-oxo-2-phenyl-chromen-8-yl)ethoxy]-2-pyridyl]-4H-1,2,4-oxadiazol-5-one]: the pIC50 in data set [1] is more than 7.00; in data set [2], more than 6.30. In addition, the microsomal CLint at 1 μM in data set [3] (human liver microsomes 0.5 mg/mL, 1 μM compound, read-out: intrinsic clearance in human MICS) was less than 50 µL/min/mg.
Consider `Cc1cc([C@@H](C)Oc2ccc(Cl)nc2N)c2oc(-c3cnn(C)c3)c(C)c(=O)c2c1` [Example 30B, 8-[(1R)-1-[(2-Amino-6-chloro-3-pyridyl)oxy]ethyl]-3,6-dimethyl-2-(1-methylpyrazol-4-yl)chromen-4-one], for which the pIC50 in data set [1] was more than 7.00; in data set [2] it was more than 6.30; in data set [4], more than 6.30.
